Reference: PMC10475101, “Selective steroidogenic cytochrome P450 haem iron ligation by steroid-derived isonitriles” (Communications Chemistry, 2023)

Experiments:
[1] = biological target: CYP106A2 (Priestia megaterium, UniProt Q06069); test: Absorbance difference spectra titration of CYP106A2; assay type: binding, bacterial; conditions: 1 µM CYP106A2
Protocol: Fig. 5 CYP106A2 interaction with steroidal isonitriles. […] Maximum concentration of 2 (light blue trace) is 20 µM. […] Maximum concentration of 4 is ~10 µM (blue trace). C Overlay of 800 MHz ^1H,^15N-TROSY-HSQC spectra of ^15N-Gly-labeled CYP106A2 with levopimaric acid p-benzoquinone Diels-Alder adduct bound after reduction with sodium dithionite and treatment with carbon monoxide (red), or with 7,17-(bis)isonitrile 4 (blue) after anaerobic reduction with sodium dithionite.

[2] = biological target: T1, CYP3A4 (Homo sapiens, UniProt P08684); assay type: biochemical; conditions: concentrations up to 100 µM
T1 construct: made in house
Protocol: (Adapted from Bart & Scott)[28]. Metabolic activity of CYP3A4 was evaluated by measuring metabolism of nifedipine to dehydronifedipine […], as detected by HPLC with UV detection at 254 nm. Reactions were carried out in amber microcentrifuge tubes (NFP is light sensitive) in a final volume of 150 μl. A 1:2 ratio of CYP3A4 to recombinant NADPH-cytochrome P450 reductase was mixed and incubated at room temperature for 20 min. This mixture was added to buffer (40 mM HEPES, 30 mM MgCl2, pH 7.4) containing 0.1 mM NFP and increasing concentrations of 1c (0–100 µM). Reaction vials were warmed to 37 °C for 3 min, then catalysis was initiated by adding NADPH to a final concentration of 1 mM. After 20 min, metabolism was quenched by adding 50 µL acetonitrile and placed on ice. […]
187 a baseline absorbance reading from 400 to 500 nm using a UV-visible scanning spectrophotometer, of a 1cm […]
190 phosphate buffer (pH 7.4), 20% glycerol, and 100 mM sodium chloride). A small quantity of sodium dithionite
191 (spatula tip-full) was then added to the cuvette, and the spectra were recorded periodically over time to […]
195 Metabolic activity of CYP17A1 was evaluated by measuring 17α-hydroxylation of progesterone as detected […]
212 dehydronifedipine, as detected by HPLC with UV detection at 254 nm. […]

[3] = biological target: T2, CYP17A1 (Homo sapiens, UniProt P05093); test: biochemical
T2 construct: made in house
T2 sequence (P05093 24-508 limits assumed): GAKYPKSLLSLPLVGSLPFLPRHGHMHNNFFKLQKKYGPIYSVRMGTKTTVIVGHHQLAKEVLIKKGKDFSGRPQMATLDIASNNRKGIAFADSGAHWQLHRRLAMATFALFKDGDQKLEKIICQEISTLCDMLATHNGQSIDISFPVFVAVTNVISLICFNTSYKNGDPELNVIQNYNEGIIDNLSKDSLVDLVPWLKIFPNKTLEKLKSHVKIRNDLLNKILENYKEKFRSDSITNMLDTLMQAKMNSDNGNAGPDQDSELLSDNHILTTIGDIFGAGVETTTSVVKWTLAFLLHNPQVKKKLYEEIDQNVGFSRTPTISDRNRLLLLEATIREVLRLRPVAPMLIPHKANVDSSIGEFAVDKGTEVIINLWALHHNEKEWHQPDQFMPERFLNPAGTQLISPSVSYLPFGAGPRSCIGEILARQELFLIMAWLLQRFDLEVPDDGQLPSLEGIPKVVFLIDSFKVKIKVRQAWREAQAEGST
Protocol: Metabolic activity of CYP17A1 was evaluated by measuring 17α-hydroxylation of progesterone as detected by HPLC with UV detection at 240 nm. A 1:4 ratio of CYP17A1 to recombinant NADPH-cytochrome P450 reductase was mixed and incubated on ice for 20 min. […] Reaction vials were warmed to 37 °C for 3 min, then catalysis was initiated by adding NADPH to a final concentration of 1 mM. After 10 min, metabolism was quenched by adding 300 µL of 20% trichloroacetic acid and placed on ice. The reaction vials were centrifuged to pellet the precipitated protein, then the supernatant was injected onto a C18 column for HPLC identification of product. Metabolite elution was normalized to β-estradiol as an internal standard. A standard curve of known product concentrations was used to convert normalized area under curve to amount of product produced. A four-parameter variable-slope equation was used to fit the data and calculate IC50 values for inhibitors using GraphPad Prism 9.
196 by HPLC with UV detection at 240 nm. A 1:4 ratio of CYP17A1 to recombinant NADPH-cytochrome P450
197 reductase was mixed and incubated on ice for 20 minutes. This mixture was added to buffer (50 mM Tris, pH
199 Reaction vials were warmed to 37 °C for three minutes, then catalysis was initiated by adding NADPH to a
200 final concentration of 1 mM. After 10 minutes, metabolism was quenched by adding 300 µL of 20%
201 trichloroacetic acid and placed on ice. The reaction vials were centrifuged to pellet the precipitated protein,
202 then the supernatant was injected onto a C18 column (Phenomenex, Luna, 50 x 4.6 mm) for HPLC. The 30-
203 minute HPLC method ran at 0.8 mL/min and started with a mobile phase of 60% acetonitrile, 40% water with
204 0.2% acetic acid for five minutes, in creased to 80% acetonitrile over 10 minutes, held at 80% acetonitrile for
205 five minutes, 100% acetonitrile for five minutes, then returned to 60% acetonitrile to prepare for the next
206 sample. Metabolite elution was normalized to β-estradiol as an internal standard. A standard curve of known
207 product concentrations was used to convert normalized area under curve to amount of product produced. A
208 four-parameter variable-slope equation (Y=Ymin + (Ymax-Ymin)/(1+(IC50/X)^(Hill Slope))) was used to fit the data
209 and calculate IC50 values for inhibitors using GraphPad Prism 9.

Chain of CYP106A2 (Q06069 whole entry): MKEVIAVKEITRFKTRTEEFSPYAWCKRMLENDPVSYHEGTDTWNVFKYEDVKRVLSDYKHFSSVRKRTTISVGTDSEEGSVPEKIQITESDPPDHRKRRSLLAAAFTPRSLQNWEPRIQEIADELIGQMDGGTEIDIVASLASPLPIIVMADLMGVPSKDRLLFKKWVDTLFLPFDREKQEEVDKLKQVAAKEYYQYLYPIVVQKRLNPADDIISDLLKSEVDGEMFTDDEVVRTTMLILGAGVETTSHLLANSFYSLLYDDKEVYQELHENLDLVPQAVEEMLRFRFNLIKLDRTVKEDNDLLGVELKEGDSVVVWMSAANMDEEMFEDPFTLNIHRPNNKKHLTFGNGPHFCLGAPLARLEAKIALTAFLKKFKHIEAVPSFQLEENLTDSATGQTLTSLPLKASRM
T1 sequence (P08684 23-503 limits assumed): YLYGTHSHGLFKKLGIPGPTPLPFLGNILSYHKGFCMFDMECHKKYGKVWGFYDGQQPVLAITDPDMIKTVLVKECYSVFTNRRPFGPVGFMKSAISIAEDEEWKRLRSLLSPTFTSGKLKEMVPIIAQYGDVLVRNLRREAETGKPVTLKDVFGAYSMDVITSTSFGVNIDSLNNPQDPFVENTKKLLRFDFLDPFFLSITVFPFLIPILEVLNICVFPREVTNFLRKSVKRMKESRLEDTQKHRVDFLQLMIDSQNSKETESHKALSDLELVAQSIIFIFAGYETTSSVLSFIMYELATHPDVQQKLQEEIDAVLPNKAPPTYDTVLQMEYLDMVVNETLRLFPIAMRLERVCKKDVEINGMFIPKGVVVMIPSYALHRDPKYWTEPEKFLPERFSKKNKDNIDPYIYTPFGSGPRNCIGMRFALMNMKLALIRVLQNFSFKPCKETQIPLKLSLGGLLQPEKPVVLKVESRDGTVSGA

## [C-]#[N+][C@H](C)[C@H]1CC[C@H]2[C@@H]3CC[C@H]4C[C@@H](OC=O)CC[C@]4(C)[C@H]3CC[C@]12C [Compound 1, 3β-formyl-5α-pregnanolone-(R)-20-isonitrile]
[1]
  spectral response / binding mode on CYP106A2: does not cause spectral perturbation
[1]; listed as 20-(R)-1
  spectral response / binding mode on CYP106A2: no evidence for formation of a Fe—C bonded complex
[2]
  inhibition of CYP3A4-catalyzed nifedipine oxidation: no inhibition
[3]
  IC50: 1300 nM
[3]; CYP17A1 progesterone hydroxylation
  slope of the inhibition curve: 2.4
